Data on 4 compounds can be found in patent US7723091B2 (priority 1999, dated 2010).

Several values for one entry are separate records, joined by “and”; a condition that tells them apart may be missing. Equal values may be shown once. Read-outs that look alike come from different tables or passages of the source. Marks after values point to notes of the source that are not given here.

In data set [1] the test system is E. acervulina, E. maxima and Clostridium perfringens. It counts as in vivo, broiler chickens. The settings on record: infected.
Data set [2] has as its system E. coli MG1655. In words: Cylinder plate assay for antibiotic activity. Conditions: E. coli MG1655 testing strain. It counts as cell-based. As to the method:
Fermentation with Bacillus cereus (ATCC 7004) was conducted according to the method described in EXAMPLE 2 except that the initial volume was increased to 20 liters. A test for the presence of antibiotic was conducted with E. coli MG1655 as the testing strain with final fermentation broth or partially purified PI-PLC prepared according to the method described in EXAMPLES 3-5. The test was conducted as a.cylinder plate assay. See Brantner, Pharmazie 52(1):34-40, 1997.

In data set [3] the test system is Eimeria acervulina and Clostridium perfringens. It counts as in vivo, broiler chickens. Conditions: Trial I.
Data set [4] has as its system E. acervulina and Clostridium perfringens. It counts as in vivo, broiler chickens.
In data set [5] the test system is Eimeria acervulina sporozoites. In words: In vitro invasion of BHK cells by Eimeria acervulina sporozoites. It counts as cell-based. The settings on record: B. cereus PI-PLC 0.0403 U/mL, recombinant 0.261 U/mL. As to the method:
(§1) Eineria acervulina sporozoites or Eimeria tenella sporozoites and cultured baby hamster kidney (BHK) cells were prepared by published methods. See Augustine, Avian and Poultry Biology Reviews 1:113-122, 2000. For cell pretreatment, cell cultures were overlaid with dilutions of enzymes as described in Table 11, and examined for morphological changes from 5 to 45 min post overlay. After 45 minutes, the monolayer cultures were washed twice, then inoculated with untreated E. acervulina or E. tenella sporozoites. For application during infection, sporozoites were suspended in the appropriate dilution of the enzyme and inoculated immediately into the cell cultures. After 45 minutes incubation, cultures were fixed, stained, and the invasion was quantified.
(§2) Observations were made looking for changes in gross morphology of sporozoites or cells due to enzyme treatment. At the enzyme levels used in these experiments, no morphological change was noted. The sporozoite invasion of the cultured cells was measured after the two methods of enzyme treatment, as well as without enzyme treatment, by histological staining and microscopy procedures. See Augustine, supra.

The subject of data set [6] is Eimeria tenella sporozoites. The data set is described as follows: In vitro invasion of BHK cells by Eimeria tenella sporozoites. It counts as cell-based. The settings on record: B. cereus PI-PLC 0.0403 U/mL, recombinant 0.261 U/mL. How it is done:
as §1, §2

The subject of data set [7] is E. acervulina, E. maxima, and C. perfringens. It counts as in vivo, broiler chickens. The settings on record: Trial III; infected; no PI-PLC (T4 mannanase 100 MU/ton; T9 salinomycin 60 g/ton+BMD 50 g/ton).
Setting [8] is: Trial IV, PI-PLC 30 U/lb, Man. 121 MU/ton, BMD 50 g/ton, salinomycin 60 g/ton.
[9] abbreviates: mean of 4 replicates, infected, PI-PLC 0.34 g/ton pure basis (T3, T4) or Sacox 60 g/ton + BMD-50 50 g/ton (T2) in feed.
The mark [10] stands for this setting: single replicate (cage) values, infected, PI-PLC 0.34 g/ton pure basis (T3, T4) or Sacox 60 g/ton + BMD-50 50 g/ton (T2) in feed.
Setting [11] is: Trial II T4 (Rec), T7 (Wt), infected, 10 U/lb.
The mark [12] stands for this setting: Application of Enzyme During Infection, Test 2, listed as PI-PLC from B. cereus.
Setting [13] is: Cell Pretreatment with Enzyme Followed by Wash, Test 1, mannanase 5100 U/mL, listed as PI-PLC from B. cereus.
The mark [14] stands for this setting: Cell Pretreatment with Enzyme Followed by Wash, Test 2, mannanase 5100 U/mL, listed as PI-PLC from B. cereus.
Setting [15] is: Trial IV Test 13, Man. 5x at 506 MU/ton.
The mark [16] stands for this setting: Cell Pretreatment with Enzyme Followed by Wash, Test 1, mannanase 5100 U/mL.
Setting [17] is: Cell Pretreatment with Enzyme Followed by Wash, Test 2, mannanase 5100 U/mL.

On to `CC[C@@H](C(=O)[C@@H](C)[C@@H](O)[C@H](C)[C@@H]1O[C@@H]([C@@H](CC)C(=O)O)CC[C@@H]1C)[C@H]1O[C@]2(C=C[C@@H](O)[C@]3(CC[C@@](C)([C@H]4CC[C@](O)(CC)[C@H](C)O4)O3)O2)[C@H](C)C[C@@H]1C` [S, Salinomycin, reference compound], for which, in data set [1] (setting [8]), the “Feed Conversion Day 0-21” value came to 1.709, the “Feed Conversion Day 8-21” value is 1.719, the “Lesion Score E. acer. Upper” value is 1.00 and the “Lesion Score E. max. Middle” value was 1.09. Also, in data set [1] (setting [8]), the “Live Weight Day 21” value was determined as 0.496, the “Weight Gain Day 0-21” value is recorded as 0.458 and the “Weight Gain Day 8-21” value came out at 0.368.
With “phosphatidylinositol specific phospholipase C [Wild type PI-PLC]”, in data set [2], the “clearing zone indicating antibiotic activity” value is “No clearing zone”. Further, the “performance compared with the Salinomycin+BMD treatment” value in data set [3] (by all criteria (Tables 4-5)) is “worked as well as or better than the Salinomycin+BMD treatment”. In addition, in data set [3] (setting [9]), the “Average Body Weight at 21 Days, Mean” value was 378.71 g and 373.14 g. Further, in data set [3] (setting [9]), the “Average Feed Conversion (0-21 days) Corrected for Weight of Mortality Birds, Mean” value was 1.425 and 1.419. The “Average Body Weight at 21 Days” value in data set [3] (setting [10]) is 377.83 g and 366.67 g and 383.83 g and 361.17 g and 378.83 g and 361.33 g and 374.33 g and 403.40 g. For the same compound, the “Average Feed Conversion (0-21 days) Corrected for Weight of Mortality Birds” value in data set [3] (setting [10]) is 1.438 and 1.404 and 1.407 and 1.445 and 1.423 and 1.421 and 1.432 and 1.406. The “8-21 Day Feed Conversion (Corrected)” value in data set [4] (setting [11]) is 1.876. Also, in data set [4] (setting [11]), the “8-21 Day Weight Gain” value stood at 298.98. Further, in data set [4] (setting [11]), the “Average Intestinal Lesion Score” value amounted to 1.267. Besides, the “effectiveness compared with recombinant counterpart” value in data set [4] (Trial II, same concentration (10 U/lb)) is on record as “did not work as effectively as its recombinant counterpart”. In addition, the “Invasion counts (mean ± standard error of the mean)” value in data set [5] (Application of Enzyme During Infection, Test 1, listed as PI-PLC from B. cereus) is recorded as 33 ± 3^b; in data set [5] (setting [12]), 25 ± 2^ab; in data set [5] (setting [13]) it was 15 ± 1^b; in data set [5] (setting [14]), 26 ± 1^ab; in data set [6] (Application of Enzyme During Infection, Test 1, mannanase 5100 U/mL, listed as PI-PLC from B. cereus), 52 ± 13^ab; in data set [6] (setting [12]), 37 ± 2^ab. The entries for the “Invasion counts (mean ± standard error of the mean)” value in data set [6] (setting [13]) and in data set [6] (setting [14]) were 38 ± 2^b and 21 ± 2^a, respectively.
Turning to “Bacitracin methylene disalicylate [reference compound]”, in data set [1] (setting [8]), the “Feed Conversion Day 0-21” value was 1.707, the “Feed Conversion Day 8-21” value is 1.770, the “Lesion Score E. acer. Upper” value amounted to 2.25 and the “Lesion Score E. max. Middle” value came to 1.94. In addition, in data set [1] (setting [8]), the “Live Weight Day 21” value turned out to be 0.490, the “Weight Gain Day 0-21” value is 0.453 and the “Weight Gain Day 8-21” value turned out to be 0.352.
With endo-1,4- -D-mannanase [β-mannanase], in data set [7], the “Feed Consumption Day 0-21” value is recorded as 10.787^abc, the “Feed Consumption Day 8-21” value was 8.435^abc, the “Feed Conversion Day 0-21” value is given as 1.501^cd and the “Feed Conversion Day 8-21” value is listed as 1.536^c. In data set [7], the “Lesion Scores E. acer.” value was 1.16^ab, the “Lesion Scores E. max.” value is reported as 1.44^ab, the “Live Wt. Day 21” value was 0.652^bc and the “Weight AF/G Treatment (weight adjusted feed conversion)” value came to 1.465. Further, in data set [7], the “Weight Gain Day 0-21” value is recorded as 0.611^bc and the “Weight Gain Day 8-21” value was 0.490^b. In addition, in data set [1] (setting [15]), the “Feed Conversion Day 0-21” value was determined as 1.740, the “Feed Conversion Day 8-21” value stood at 1.813, the “Lesion Score E. acer. Upper” value came out at 2.13 and the “Lesion Score E. max. Middle” value is 2.00. In data set [1] (setting [15]), the “Live Weight Day 21” value stood at 0.471, the “Weight Gain Day 0-21” value turned out to be 0.437 and the “Weight Gain Day 8-21” value amounted to 0.339. Also, in data set [1] (setting [8]), the “Feed Conversion Day 0-21” value stood at 1.803, the “Feed Conversion Day 8-21” value is 1.849, the “Lesion Score E. acer. Upper” value was determined as 1.94 and the “Lesion Score E. max. Middle” value is 1.34. In data set [1] (setting [8]), the “Live Weight Day 21” value came out at 0.483, the “Weight Gain Day 0-21” value turned out to be 0.433 and the “Weight Gain Day 8-21” value came out at 0.338. Moreover, the “Invasion counts (mean ± standard error of the mean)” value in data set [5] (setting [16]) was 16 ± 1^b. The “Invasion counts (mean ± standard error of the mean)” value in data set [5] (setting [17]) is recorded as 29 ± 2^ab. Besides, in data set [6] (Application of Enzyme During Infection, Test 1, mannanase 5100 U/mL), the “Invasion counts (mean ± standard error of the mean)” value is recorded as 46 ± 6^ab. For the same compound, in data set [6] (setting [16]), the “Invasion counts (mean ± standard error of the mean)” value is reported as 35 ± 1^b. Moreover, the “Invasion counts (mean ± standard error of the mean)” value in data set [6] (setting [17]) was 19 ± 5^a.
